Like-named read-outs stand apart in the source and are kept apart here.
What was measured:
[1] = test system: Sarcoma 180 tumors; conditions: given orally; cited from earlier work
[2] = Cell free plasma 13-HODE levels in rabbits treated orally with 13-HODE; assay type: in vivo, New Zealand white rabbits
Method: (§1) New Zealand white rabbits (half males/half females; 2.5–2.9 kg) were used throughout. Rabbits were treated with 100, 400 or 1000 μg/kg/day of purified 13-HODE suspended in corn oil or ethyl-eicosapentaenoic acid (EPA), or with an equivolume of either suspending vehicle (total volume 1 ml) for 7 days. Serial blood samples were collected before, during and after treatment to assess the levels of 13-HODE in plasma. On day 7, the treatments were stopped. At that time, the rabbits were anaesthetised with a combination of Atravet, Ketamine, Vetrepham and glycopyrolate, given subcutaneously. Both carotid arteries of anaesthetised rabbits were isolated between 2 temporary ligatures, first by applying the proximal ligature, then allowing the blood to drain from the segment, and then applying the distal ligature. A 24-gauge angiocath attached to tubing filled with sterile saline and connected to a pressure manometer, was inserted into the isolated segment. Then the segment was filled with the saline to a pressure of 600 mm Hg which was maintained for 5 minutes. The pressure was relieved, and the angiocath and ligatures were removed, thereby allowing for blood flow restoration. Cessation of bleeding from the needle puncture site was achieved within 3 minutes without any manual manipulation. The incisions were sutured closed with 000 proline. The rabbits were injected intramuscularly with Temgesic to minimize any pain and with 12.5 mg Baytril as an antibiotic, and then allowed to recover. This injury procedure results in endothelial denudation and the exposure of a thrombogenic surface within 1 hour of restoration of blood flow, followed by SMC proliferation and intimal hyperplasia, which plateaus at □ 4 weeks and which is sustained for ≧12 weeks (Buchanan M R, Brister S J: 1998: Buchanan M R et al. 1999).
Two, four or twelve weeks later, the rabbits were re-anaesthetised and their injured carotid arteries were again isolated. Segments of injured and uninjured carotid artery were harvested and processed histologically to assess VW hyperplasia. Other VW segments and blood samples were collected and processed for VW and plasma 13-HODE levels.

[3] = Vessel wall (VW) 13-HODE levels in rabbits treated orally with 13-HODE; assay type: in vivo, New Zealand white rabbits; conditions: suspended in ethyl-EPA, all treatment levels
Method: as §1, with “The rabbits were injected intramuscularly with Temgesic to minimize any pain and with 12.5 mg Baytril as an antibiotic, and then allowed to recover. This injury procedure results in endothelial denudation and the exposure of a thrombogenic surface within 1 hour of restoration of blood flow, followed by SMC proliferation and intimal hyperplasia, which plateaus at □ 4 weeks and which is sustained for ≧12 weeks (Buchanan M R, Brister S J: 1998: Buchanan M R et al. 1999).” left out

[4] = test system: VW intimal hyperplasia of injured carotid arteries; experiment: Intimal hyperplasia after carotid artery pressure injury in rabbits; assay type: in vivo, New Zealand white rabbits; conditions: 7 day course of 100 μg/kg/day, in either corn oil or ethyl-EPA, p<0.001
Method: as §1, with “The rabbits were injected intramuscularly with Temgesic to minimize any pain and with 12.5 mg Baytril as an antibiotic, and then allowed to recover. This injury procedure results in endothelial denudation and the exposure of a thrombogenic surface within 1 hour of restoration of blood flow, followed by SMC proliferation and intimal hyperplasia, which plateaus at □ 4 weeks and which is sustained for ≧12 weeks (Buchanan M R, Brister S J: 1998: Buchanan M R et al. 1999).” left out

[5] = Stability of 13-HODE dosage forms; assay type: physicochemical; conditions: dissolved into a triglyceride oil carrier or an ester
Method: A real problem is presented by the fact that active daily doses of 13-HODE are in the 50 to 1,000 μg/kg/day range. […] That translates into a 7 mg/day dose for a 70 kg person. Since doses for humans are often considerably lower than doses for animals because of a weight/body surface area scaling, a daily dose of as little as 5 mg or less is really possible. Formulating an oily liquid is such small doses is a problem. It could be absorbed into tabletting materials and tabletted and coated, or micro-encapsulated by methods well known to those skilled in the art. […] Other triglyceride oils such as vegetable oil, including sunflower, safflower, soy, evening primrose, borage, coconut or palm oil, or cottonseed, rapeseed, olive, fish body or fish liver oils may all be used for this purpose. Particularly useful esters for this purpose are esters of fatty acids with 16–26 carbon atoms and one or more double bonds in the chain.

[6] = stroke, myocardial infarction, transient ischemic attacks; cited from earlier work
[7] = test system: platelet/injured VW interactions; conditions: dose comparable to that used clinically; cited from earlier work
[8] = test system: intimal SMC hyperplasia; conditions: 1 mg/kg/day for 7 days before VW injury, 4 weeks after VW injury; cited from earlier work
[9] = 3.2 gm daily (20 capsules) for 30 days; cited from earlier work
[10] = test system: platelet/injured VW interactions; conditions: 3.2 gm daily for 30 days; cited from earlier work

## CCCCC/C=C\C=C\C(O)CCCCCCCC(=O)O (stereo not shown) [9-HODE, 9-hydroxy-10(E)-12(Z) octadecadienoic acid]
[1]
  minimum effective dose for inhibiting the rate of tumour growth: 55 mg/kg/day

## CCCCCC(O)/C=C/C=C\CCCCCCCC(=O)O (stereo not shown) [13-HODE, 13-hydroxyoctadeca-9Z, 11E-dienoic acid]
[2]; 1,000 μg/kg/day oral
  time to significantly elevated cell-free plasma 13-HODE level: ≤ 3 days
[2]; 1,000 μg/kg/day oral, treatment stopped after 7 days
  time cell-free plasma 13-HODE level remained elevated: 4 weeks
[2]; 1,000 μg/kg/day vs 100 μg/kg/day, corn oil
  effect on plasma 13-HODE levels of increasing the dose: no further effect
[2]; after 7 days of oral 100 μg/kg/day, suspended in corn oil
  increase in the plasma 13-HODE levels: three-fold increase
[2]; orally administered
  half life: long half life
  oral absorption: well absorbed
[2]; suspended in ethyl-EPA, all treatment levels
  absolute levels of plasma 13-HODE, compared with corn oil: lower in all treatment levels tested
[3]
  absolute levels of VW 13-HODE, compared with corn oil: somewhat lower at all treatment levels tested
[4]
  intimal VW hyperplasia: significantly inhibited
[5]
  stability of the dosage form: stable without degradation

## CC(=O)Oc1ccccc1C(=O)O [ASA]
[6]
  overall risk reduction: ~25%

## OCCN(CCO)c1nc(N2CCCCC2)c2nc(N(CCO)CCO)nc(N3CCCCC3)c2n1 [Persantine]
[7]
  decrease in platelet/injured VW interactions: > 2 fold
[8]
  SMC hyperplasia: inhibited

## CCCCC/C=C\C/C=C\CCCCCCCC(=O)O [linoleic acid, Octa-deca-9Z, 12Z-dienoic acid]
[9]
  increase in VW 13-HODE levels: 2 fold
[10]
  decrease in platelet/injured VW interactions: > 2 fold

From US7202276B2, “Use of 13-HODE as a regulator of vascular biocompatibility and an inhibitor of cell hyperplasia” (1411198 Ontario Limited, priority 2000, dated 2007)
